What was measured:
[1] = biological target: T1, Stimulator of interferon genes protein (Homo sapiens, UniProt Q86WV6); assay: Agonist activity at human STING expressed in human THP-1 cells expressing IRF inducible SEAP reporter construct assessed as increase in interferon production incubated for 24 hrs by QUANTI-Blue colorimetric assay; type: cell-based
Target sequence in this assay (Q86WV6 whole entry): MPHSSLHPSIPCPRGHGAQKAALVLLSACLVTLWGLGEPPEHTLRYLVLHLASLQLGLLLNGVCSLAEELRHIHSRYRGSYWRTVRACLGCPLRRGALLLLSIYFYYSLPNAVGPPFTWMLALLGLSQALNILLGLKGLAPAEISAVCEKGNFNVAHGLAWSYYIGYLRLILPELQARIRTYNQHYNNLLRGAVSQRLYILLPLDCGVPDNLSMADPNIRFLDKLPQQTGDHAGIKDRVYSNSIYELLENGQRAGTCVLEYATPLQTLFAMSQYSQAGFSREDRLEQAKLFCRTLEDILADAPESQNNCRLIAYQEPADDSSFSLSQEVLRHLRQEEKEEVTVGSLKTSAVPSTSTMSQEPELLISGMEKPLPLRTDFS

[2] = biological target: T1, Stimulator of interferon genes protein; conditions: filed as agonist
Target sequence in this assay (Q86WV6 whole entry): as above
Description: Binding affinity to recombinant human wild type STING (155 to 341 residues) expressed in Escherichia coli BL21 DE3 assessed as thermal stabilization by measuring change in melting temperature by differential scanning fluorimetry

[3] = biological target: T1, Stimulator of interferon genes protein; assay: Agonist activity at human STING HAQ variant overexpressed in STING knockout human THP1-Blue ISG cells expressing IRF inducible SEAP reporter construct assessed as increase in interferon production by measuring SEAP activity incubated for 24 hrs by Fingerprinting based QUANTI-Blue colorimetric assay; type: cell-based
Target sequence in this assay (Q86WV6 whole entry, looked up, change not shown): as the sequence (Q86WV6 whole entry) above

[4] = biological target: T1, Stimulator of interferon genes protein; assay: Agonist activity at human STING AQ variant overexpressed in STING knockout human THP1-Blue ISG cells expressing IRF inducible SEAP reporter construct assessed as increase in interferon production by measuring SEAP activity incubated for 24 hrs by Fingerprinting based QUANTI-Blue colorimetric assay; type: cell-based
Target sequence in this assay (Q86WV6 whole entry, looked up, change not shown): as the sequence (Q86WV6 whole entry) above

[5] = biological target: T1, Stimulator of interferon genes protein; assay: Agonist activity at human STING Q variant overexpressed in STING knockout human THP1-Blue ISG cells expressing IRF inducible SEAP reporter construct assessed as increase in interferon production by measuring SEAP activity incubated for 24 hrs by Fingerprinting based QUANTI-Blue colorimetric assay; type: cell-based
Target sequence in this assay (Q86WV6 whole entry, looked up, change not shown): as the sequence (Q86WV6 whole entry) above

[6] = biological target: T1, Stimulator of interferon genes protein; assay: Agonist activity at human STING in STING knockout human THP1-Blue ISG cells expressing IRF inducible SEAP reporter construct assessed as increase in interferon production by measuring SEAP activity incubated for 24 hrs by Fingerprinting based QUANTI-Blue colorimetric assay; type: cell-based
Target sequence in this assay (Q86WV6 whole entry): as above

[7] = biological target: T1, Stimulator of interferon genes protein; assay: Agonist activity at human STING REF variant overexpressed in STING knockout human THP1-Blue ISG cells expressing IRF inducible SEAP reporter construct assessed as increase in interferon production by measuring SEAP activity incubated for 24 hrs by Fingerprinting based QUANTI-Blue colorimetric assay; type: cell-based
Target sequence in this assay (Q86WV6 whole entry, looked up, change not shown): as the sequence (Q86WV6 whole entry) above

[8] = biological target: T1, Stimulator of interferon genes protein; assay: Agonist activity at human wild type STING overexpressed in STING knockout human THP1-Blue ISG cells expressing IRF inducible SEAP reporter construct assessed as increase in interferon production by measuring SEAP activity incubated for 24 hrs by Fingerprinting based QUANTI-Blue colorimetric assay; type: cell-based
Target sequence in this assay (Q86WV6 whole entry): as above

[9] = Aqueous solubility of compound in phosphate buffer at pH 7.6 incubated for 2 hrs by HPLC-UV analysis; type: physicochemical
[10] = Protein binding in human plasma assessed as unbound fraction at 3 uM incubated for 2 hrs by equilibrium dialysis based HPLC/MS/MS analysis; type: ADME, cell-free
[11] = MRT in C57BL/6 mouse at 10 micromol/kg, iv by HPLC/MS/MS analysis; type: ADME, organism-based; conditions: in vivo, dose 10 µmol/kg
[12] = Clearance in C57BL/6 mouse plasma assessed as hepatic blood flow at 10 micromol/kg, iv by HPLC/MS/MS analysis; type: ADME, organism-based; conditions: in vivo, at 10 µmol/kg
[13] = Stability in human plasma assessed as half life at 1 uM by HPLC/MS/MS analysis; type: ADME, cell-free
hERG (KCNH2) = hERG (KCNH2) (Homo sapiens, UniProt Q12809); assay: Inhibition of human ERG at 10 uM; type: toxicity
Chain of hERG (KCNH2) (Q12809 whole entry): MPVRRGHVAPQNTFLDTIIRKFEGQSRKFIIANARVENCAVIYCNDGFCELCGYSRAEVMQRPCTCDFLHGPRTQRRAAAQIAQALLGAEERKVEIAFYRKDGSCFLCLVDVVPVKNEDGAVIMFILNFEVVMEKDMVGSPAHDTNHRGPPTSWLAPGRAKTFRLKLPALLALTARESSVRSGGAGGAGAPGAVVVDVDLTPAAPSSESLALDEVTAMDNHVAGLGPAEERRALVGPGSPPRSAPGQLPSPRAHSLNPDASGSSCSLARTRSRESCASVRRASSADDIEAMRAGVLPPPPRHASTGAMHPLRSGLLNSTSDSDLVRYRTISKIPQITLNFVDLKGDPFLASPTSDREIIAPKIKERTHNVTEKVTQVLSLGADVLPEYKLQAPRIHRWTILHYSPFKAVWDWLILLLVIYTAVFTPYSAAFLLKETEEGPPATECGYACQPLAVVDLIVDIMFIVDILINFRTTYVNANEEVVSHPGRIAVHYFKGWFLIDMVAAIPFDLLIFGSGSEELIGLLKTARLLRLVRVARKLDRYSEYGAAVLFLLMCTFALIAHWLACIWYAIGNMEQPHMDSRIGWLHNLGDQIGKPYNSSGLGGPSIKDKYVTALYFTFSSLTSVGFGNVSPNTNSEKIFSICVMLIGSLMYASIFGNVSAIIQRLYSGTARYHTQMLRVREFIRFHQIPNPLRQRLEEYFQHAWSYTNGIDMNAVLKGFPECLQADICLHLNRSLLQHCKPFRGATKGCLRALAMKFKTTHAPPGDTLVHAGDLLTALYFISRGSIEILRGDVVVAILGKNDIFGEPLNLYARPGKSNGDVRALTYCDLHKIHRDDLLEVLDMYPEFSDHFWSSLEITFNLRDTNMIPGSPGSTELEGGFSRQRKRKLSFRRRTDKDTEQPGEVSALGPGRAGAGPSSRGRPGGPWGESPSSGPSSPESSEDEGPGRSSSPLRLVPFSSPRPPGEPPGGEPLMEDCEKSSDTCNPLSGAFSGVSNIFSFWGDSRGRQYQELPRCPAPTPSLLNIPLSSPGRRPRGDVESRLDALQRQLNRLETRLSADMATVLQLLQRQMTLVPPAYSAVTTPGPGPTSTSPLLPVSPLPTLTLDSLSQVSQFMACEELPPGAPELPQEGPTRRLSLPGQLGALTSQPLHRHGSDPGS

[14] = Stability in mouse plasma assessed as half life at 1 uM by HPLC/MS/MS analysis; type: ADME, cell-free
[15] = Aqueous solubility of compound in 0.9% NaCl buffer at pH 6.4 incubated for 2 hrs by HPLC-UV analysis; type: physicochemical
[16] = Chemical stability of compound in 0.9% NaCl buffer assessed as compound degradation at 1 mg/ml incubated for 8 weeks at 40 degreeC by HPLC-UV analysis; type: physicochemical; conditions: read-out: Drug degradation
[17] = Elimination half life in BALB/c syngeneic mouse tumor xenografted with mouse 4T1 cells at 0.16 to 1.4 mg/kg,IT and measured upto 25 hrs by HPLC/MS/MS analysis; type: ADME, organism-based, Neoplasm; conditions: dose 0.16-1.4 mg/kg, read-out: beta t1/2 (converted)
[18] = Protein binding in mouse plasma assessed as unbound fraction at 3 uM incubated for 2 hrs by equilibrium dialysis based HPLC/MS/MS analysis; type: ADME, cell-free
[19] = Volume of distribution at steady state in C57BL/6 mouse at 10 micromol/kg, iv by HPLC/MS/MS analysis; type: ADME, organism-based; conditions: in vivo, dose 10 µmol/kg, read-out: Vdss
[20] = Chemical stability of compound in phosphate buffer assessed as compound degradation at 1 mg/ml incubated for 8 weeks at 40 degreeC by HPLC-UV analysis; type: physicochemical; conditions: read-out: Drug degradation
[21] = biological target: T2, Stimulator of interferon genes protein (Mus musculus) (UniProt Q3TBT3); conditions: filed as agonist
T2 sequence (whole entry): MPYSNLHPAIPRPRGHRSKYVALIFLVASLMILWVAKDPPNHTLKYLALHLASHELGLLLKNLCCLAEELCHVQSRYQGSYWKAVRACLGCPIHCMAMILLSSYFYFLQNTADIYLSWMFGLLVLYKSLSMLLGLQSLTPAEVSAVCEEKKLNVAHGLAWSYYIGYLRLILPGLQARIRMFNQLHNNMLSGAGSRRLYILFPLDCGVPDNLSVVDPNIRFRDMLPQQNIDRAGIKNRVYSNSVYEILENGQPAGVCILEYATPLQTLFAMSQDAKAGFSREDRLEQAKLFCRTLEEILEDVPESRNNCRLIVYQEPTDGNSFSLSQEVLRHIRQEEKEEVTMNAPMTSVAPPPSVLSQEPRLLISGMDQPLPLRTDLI
Description: Binding affinity to recombinant mouse STING assessed as change in melting temperature by differential scanning fluorimetry

[22] = Clearance in C57BL/6 mouse plasma assessed as hepatic blood flow at 1 micromol/kg, iv by HPLC/MS/MS analysis; type: ADME, organism-based; conditions: in vivo, at 1 µmol/kg
[23] = MRT in C57BL/6 mouse at 1 micromol/kg, iv by HPLC/MS/MS analysis; type: ADME, organism-based; conditions: in vivo, dose 1 µmol/kg
[24] = Volume of distribution at steady state in C57BL/6 mouse at 1 micromol/kg, iv by HPLC/MS/MS analysis; type: ADME, organism-based; conditions: in vivo, dose 1 µmol/kg, read-out: Vdss

| Compound | EC50 [1] [µM] | deltaTm [2] [K] | EC50 [3] [µM] | EC50 [4] [µM] | EC50 [5] [µM] | EC50 [6] [µM] | EC50 [7] [µM] | EC50 [8] [µM] | further results |
| --- | --- | --- | --- | --- | --- | --- | --- | --- | --- |
| Nc1ncnc2c1ncn2[C@@H]1CO[C@@H]2O[P@@](=O)(S)O[C@@H]3[C@H](O)[C@@H](CO[P@@](=O)(S)O[C@H]2[C@H]1O)O[C@H]3n1cnc2c(=O)[nH]ncc21 | > 100 | 1.75 |  |  |  |  |  |  |  |
| Nc1ncnc2c1ncn2[C@@H]1O[C@@H]2CO[P@@](=O)(S)O[C@@H]3[C@H](O)[C@@H](CO[P@@](=O)(S)O[C@H]2[C@H]1F)O[C@H]3n1cnc2c(=O)[nH]nnc21 | 0.16 | 23.9 | 0.58 | 0.61 | 1.88 | > 50 | 6.01 | 0.58 |  |
| Nc1ncnc2c1ncn2[C@@H]1O[C@@]23CO[C@@H]1[C@@H]2O[P@](=O)(S)OC[C@H]1O[C@@H](n2cnc4c(=O)[nH]ncc42)[C@H](O[P@](=O)(S)OC3)[C@@H]1O | 0.17 | 17 |  |  |  |  |  |  |  |
| Nc1ncnc2c1ncn2[C@@H]1O[C@@H]2CO[P@@](=O)(S)O[C@@H]3[C@H](O)[C@@H](CO[P@@](=O)(S)O[C@H]2[C@H]1F)O[C@H]3c1cnn2c(=O)[nH]ncc12 | 0.14 | 18 | 1.04 | 0.68 | 3.38 | > 50 | 24.3 | 0.83 |  |
| CO[C@@H]1[C@@H]2O[P@](=O)(S)OC[C@H]3O[C@@H](n4cnc5c(=O)[nH]ncc54)[C@H](O[P@](=O)(S)OC[C@H]2O[C@H]1n1cnc2c(N)ncnc21)[C@@H]3O | > 100 | 3.7 |  |  |  |  |  |  |  |
| O=c1[nH]ncc2c1ncn2[C@@H]1O[C@@H]2CO[P@@](=O)(S)O[C@H]3[C@@H](O)[C@H](n4cnc5ccccc54)O[C@@H]3CO[P@@](=O)(S)O[C@@H]1[C@@H]2O | > 100 | 3.6 |  |  |  |  |  |  |  |
| Nc1ncnc2c1ncn2[C@@H]1O[C@@H]2CO[P@@](=O)(S)O[C@@H]3[C@H](O)[C@@H](CO[P@@](=O)(S)O[C@H]2[C@H]1F)O[C@H]3n1cnc2c(=O)[nH]ncc21 |  |  |  |  |  |  |  |  | solubility at 2 h [9]: > 10000 µg/mL; fraction unbound at 2 h, 3 µM [10]: 0.74; MRT [11]: 0.53 h; QH [12]: 78%; half-life at 1 µM [13]: > 2.17 h; inhibition at 10 µM (hERG (KCNH2)): 1%; half-life at 1 µM [14]: > 2.17 h; solubility at 2 h [15]: > 10000 µg/mL; degraded at 1344 h, 1 mg/ml [16]: > 0.5%; half-life [17]: 7 h; fraction unbound at 2 h, 3 µM [18]: 0.77; Vd [19]: 2.2 L/kg; degraded at 1344 h, 1 mg/ml [20]: > 0.5% |
| Nc1ncnc2c1ncn2[C@@H]1O[C@@H]2CO[P@@](=O)(S)O[C@@H]3[C@H](O)[C@@H](CO[P@@](=O)(S)O[C@H]2[C@H]1O)O[C@H]3n1cnc2c(N)ncnc21 |  |  |  |  |  |  |  |  | deltaTm [21]: 13.5 K; QH [22]: 120%; MRT [23]: 7.2 min; inhibition at 10 µM (hERG (KCNH2)): 0.4%; Vd [24]: 0.8 L/kg; half-life at 1 µM [14]: > 2.17 h; fraction unbound at 2 h, 3 µM [18]: 0.32 |
| O=c1[nH]ncc2c1ncn2[C@@H]1O[C@@H]2CO[P@@](=O)(S)O[C@H]3[C@@H](O)[C@H](n4cnc5cncnc54)O[C@@H]3CO[P@@](=O)(S)O[C@@H]1[C@@H]2O | 0.23 | 13.9 | 2.06 | 1.67 | 22.5 | > 50 | > 50 | 1.95 |  |
